# Measurements published in the supplement of paper PMC10307832.
# Tests used:
# Assay in all cases: relative viability (nuclei count vs DMSO), 5 days (fraction); higher = more cells survive
# BI-D1870 + Olaparib = compound: CC(C)CCN1c2nc(Nc3cc(F)c(O)c(F)c3)ncc2N(C)C(=O)C1C [BI-D1870] + O=C(c1cc(Cc2n[nH]c(=O)c3ccccc23)ccc1F)N1CCN(C(=O)C2CC2)CC1 [Olaparib] (partner 8 µM)
# Procedure, shortened: (§1)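 Values are medians from duplicate plates. Each reflects relative viability, defined as the nuclei count of treated wells over that of vehicle wells. Lung cancer cell lines in 1536-well plates were pin-tool dosed one day after seeding with one drug alone or with a fixed anchor-drug dose plus five library-drug doses (not always all listed) in √10 steps, then fixed, stained and imaged at 4× after 5 days.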
# Zebularine + Pictilisib = compound: O=c1ncccn1[C@@H]1O[C@H](CO)[C@@H](O)[C@H]1O [Zebularine] + CS(=O)(=O)N1CCN(Cc2cc3nc(-c4cccc5[nH]ncc45)nc(N4CCOCC4)c3s2)CC1 [Pictilisib] (partner 1 µM)
# Procedure, shortened: as §1
# Zebularine + Vorinostat = compound: O=c1ncccn1[C@@H]1O[C@H](CO)[C@@H](O)[C@H]1O [Zebularine] + O=C(CCCCCCC(=O)Nc1ccccc1)NO [Vorinostat] (partner 1 µM)
# Procedure, shortened: as §1
# BI-D1870 + Pemetrexed = compound: CC(C)CCN1c2nc(Nc3cc(F)c(O)c(F)c3)ncc2N(C)C(=O)C1C [BI-D1870] + Nc1nc2[nH]cc(CCc3ccc(C(=O)N[C@@H](CCC(=O)O)C(=O)O)cc3)c2c(=O)[nH]1 [Pemetrexed] (partner 0.2 µM)
# Procedure, shortened: as §1
Cell Line,relative viability (BI-D1870 + Olaparib; first compound 0.04 µM),relative viability (BI-D1870 + Olaparib; first compound 0.1265 µM),relative viability (BI-D1870 + Olaparib; first compound 0.4 µM),relative viability (BI-D1870 + Olaparib; first compound 1.265 µM),relative viability (BI-D1870 + Olaparib; first compound 4 µM),relative viability (Zebularine + Pictilisib; first compound 1 µM),relative viability (Zebularine + Pictilisib; first compound 3.162 µM),relative viability (Zebularine + Pictilisib; first compound 10 µM),relative viability (Zebularine + Pictilisib; first compound 31.62 µM),relative viability (Zebularine + Pictilisib; first compound 100 µM),relative viability (Zebularine + Vorinostat; first compound 1 µM),relative viability (Zebularine + Vorinostat; first compound 3.162 µM),relative viability (Zebularine + Vorinostat; first compound 10 µM),relative viability (Zebularine + Vorinostat; first compound 31.62 µM),relative viability (Zebularine + Vorinostat; first compound 100 µM),relative viability (BI-D1870 + Pemetrexed; first compound 0.04 µM),relative viability (BI-D1870 + Pemetrexed; first compound 0.1265 µM),relative viability (BI-D1870 + Pemetrexed; first compound 0.4 µM),relative viability (BI-D1870 + Pemetrexed; first compound 1.265 µM),relative viability (BI-D1870 + Pemetrexed; first compound 4 µM)
LXF-289,1.1,1.04,1.06,1.08,0.612,0.908,0.769,0.792,0.687,0.294,0.853,0.809,0.635,0.667,0.254,0.959,0.857,0.876,0.877,0.764
NCI-H23,0.307,0.263,0.294,0.301,0.212,0.536,0.444,–,0.499,0.436,0.661,0.587,–,0.542,0.509,1.12,0.585,0.602,0.684,0.316
NCI-H322M,0.736,0.75,0.713,0.735,0.624,0.496,0.504,0.439,0.538,0.465,0.946,0.873,1.21,0.945,0.537,0.632,0.564,0.596,0.59,0.517
NCI-H358,0.685,0.548,0.592,0.485,0.35,0.344,0.28,0.395,0.325,0.212,0.837,0.696,0.327,0.358,0.223,0.184,0.168,0.153,0.164,0.164
NCI-H441,0.682,0.549,0.569,0.537,0.492,0.472,0.438,0.291,0.199,0.188,1.03,0.908,0.404,0.317,0.362,0.262,0.279,0.245,0.237,0.265
NCI-H460,0.492,0.384,0.323,0.436,0.179,0.424,0.316,0.212,0.243,0.166,0.652,0.702,0.297,0.298,0.166,0.0638,0.0586,0.0621,0.0582,0.0624
NCI-H520,0.336,0.355,0.295,0.246,0.162,0.362,0.308,0.204,0.268,0.152,0.752,0.685,0.462,0.45,0.242,0.757,0.673,0.636,0.416,0.267
NCI-H596,0.73,0.743,0.625,0.671,0.63,0.304,0.373,0.361,0.42,0.362,0.628,0.598,0.358,0.577,0.612,0.458,0.47,0.45,0.576,0.454
NCI-H647,0.747,0.447,0.579,0.496,0.359,0.596,0.381,0.222,0.182,0.114,0.481,0.586,0.165,0.165,0.12,0.155,0.162,0.192,0.218,0.127
NCI-H650,0.443,0.375,0.366,0.369,0.315,0.886,0.868,0.445,0.374,0.27,0.398,0.376,0.343,0.297,0.225,0.848,0.837,0.96,0.896,0.802
NCI-H661,0.781,0.746,0.738,0.737,0.58,0.413,0.427,0.328,0.354,0.395,0.9,0.829,0.673,0.936,0.824,0.913,0.906,0.931,0.928,0.857
NCI-H838,0.792,0.719,0.74,0.855,0.663,0.463,0.457,0.422,0.51,0.303,0.712,0.723,0.654,0.859,0.402,0.267,0.249,0.31,0.248,0.262
NCI-H1355,0.898,0.698,0.713,0.74,0.57,0.45,0.272,0.371,0.426,0.254,0.692,0.585,0.479,0.544,0.372,1.04,0.998,1.03,1.15,0.963
NCI-H1395,0.448,0.436,0.429,0.489,0.406,0.681,0.568,0.493,0.606,0.42,0.7,0.753,0.661,0.655,0.515,0.882,0.735,0.848,0.95,0.86
NCI-H1437,0.617,0.577,0.578,0.578,0.445,0.559,0.453,–,0.451,0.287,1.02,0.899,0.727,0.911,0.55,0.335,0.303,0.323,0.355,0.338
NCI-H1650,0.722,0.767,0.788,0.943,0.817,0.72,0.447,–,0.839,0.488,0.645,0.57,0.506,0.748,0.373,0.405,0.358,0.338,0.427,0.373

Cell Line,relative viability (BI-D1870 + Olaparib; first compound 0.04 µM),relative viability (BI-D1870 + Olaparib; first compound 0.1265 µM),relative viability (BI-D1870 + Olaparib; first compound 0.4 µM),relative viability (BI-D1870 + Olaparib; first compound 1.265 µM),relative viability (BI-D1870 + Olaparib; first compound 4 µM),relative viability (Zebularine + Pictilisib; first compound 1 µM),relative viability (Zebularine + Pictilisib; first compound 3.162 µM),relative viability (Zebularine + Pictilisib; first compound 10 µM),relative viability (Zebularine + Pictilisib; first compound 31.62 µM),relative viability (Zebularine + Pictilisib; first compound 100 µM),relative viability (Zebularine + Vorinostat; first compound 1 µM),relative viability (Zebularine + Vorinostat; first compound 3.162 µM),relative viability (Zebularine + Vorinostat; first compound 10 µM),relative viability (Zebularine + Vorinostat; first compound 31.62 µM),relative viability (Zebularine + Vorinostat; first compound 100 µM),relative viability (BI-D1870 + Pemetrexed; first compound 0.04 µM),relative viability (BI-D1870 + Pemetrexed; first compound 0.1265 µM),relative viability (BI-D1870 + Pemetrexed; first compound 0.4 µM),relative viability (BI-D1870 + Pemetrexed; first compound 1.265 µM),relative viability (BI-D1870 + Pemetrexed; first compound 4 µM)
NCI-H1651,0.2,0.157,0.175,0.187,0.178,0.71,0.732,–,0.571,0.418,0.637,0.537,0.501,0.523,0.46,0.566,0.561,0.547,0.629,0.54
NCI-H1666,0.751,0.715,0.736,0.7,0.72,0.472,0.477,0.383,0.506,0.311,1.01,1.02,0.752,1.09,0.939,0.857,0.835,0.895,0.812,0.779
NCI-H1734,0.684,0.545,0.605,0.673,0.463,0.505,0.385,0.341,0.333,0.303,0.983,0.717,0.425,0.401,0.253,0.403,0.4,0.416,0.412,0.347
NCI-H1755,0.855,0.842,0.893,0.896,0.82,0.554,0.433,0.326,0.484,0.36,0.809,0.892,0.614,1.11,0.648,0.497,0.469,0.408,0.465,0.408
NCI-H1793,1.05,0.708,0.799,1.02,0.898,0.472,0.372,0.205,0.269,0.267,0.819,0.895,0.41,0.448,0.328,1.14,0.737,0.869,1.03,0.686
NCI-H1915,0.249,0.24,0.267,0.206,0.146,1.07,0.887,0.774,1.02,0.907,0.538,0.53,0.412,0.607,0.585,0.473,0.489,0.458,0.419,0.381
NCI-H1944,0.455,0.412,0.368,0.398,0.367,0.375,0.363,0.325,0.41,0.347,0.534,0.573,0.414,0.603,0.458,0.899,0.603,0.599,0.631,0.552
NCI-H1975,0.869,0.708,0.784,0.731,0.499,0.305,0.313,0.291,0.253,0.175,0.731,0.728,0.465,0.556,0.321,0.299,0.272,0.292,0.305,0.238
NCI-H1993,1.26,0.907,0.987,1.15,0.995,0.962,0.8,–,0.89,0.847,0.73,0.763,0.754,0.741,0.559,0.646,0.605,0.582,0.594,0.475
NCI-H2009,0.831,0.826,0.602,0.619,0.583,0.838,0.782,0.614,0.68,0.37,0.728,0.679,0.625,0.63,0.241,1.06,1.11,1.1,0.993,0.877
NCI-H2023,0.504,0.444,0.4,0.44,0.252,0.262,0.272,0.215,0.272,0.201,0.946,0.561,0.509,0.518,0.216,0.24,0.255,0.288,0.255,0.149
NCI-H2085,0.813,0.768,0.737,0.702,0.429,0.435,0.411,0.444,0.461,0.343,0.804,0.835,0.662,0.755,0.465,0.924,0.802,0.887,0.881,0.603
NCI-H2087,0.708,0.519,0.572,0.563,0.564,0.92,0.703,0.583,0.752,0.368,1.1,0.652,0.285,0.667,0.303,0.697,0.671,0.75,0.71,0.703
NCI-H2126,0.97,0.928,0.895,0.885,0.859,0.544,0.434,0.535,0.495,0.43,0.664,0.524,0.853,0.698,0.474,0.694,0.726,0.649,0.744,0.552
NCI-H2170,0.707,0.605,0.575,0.587,0.448,0.385,0.31,0.348,0.322,0.243,0.886,0.842,0.533,0.868,0.581,0.299,0.269,0.261,0.249,0.403
NCI-H2228,0.678,0.429,0.511,0.717,0.314,0.563,0.416,0.228,0.329,0.251,0.825,0.671,–,0.412,0.377,0.33,0.345,0.349,0.353,0.195
